Data set [1] concerns LoVo colon tumour cell line. Nature of the data set: MTT cell viability assay, LoVo. Particulars: increasing range of concentrations. It counts as cell-based. As to the method: (§1) For cytotoxicity assays, 1×10^4 cells were seeded per well into a 96-well plate. After 24 h cells were treated with the indicated inhibitors for 72 h and a MTT colorimetric cell viability assay was performed following manufacturer's instructions (Sigma Aldrich, St Louis, Mo.). Absorbance was measured at 570 and 630 nm using a Multiskan Plus Reader (Nanoquant Infinite M200 Tecan Trading AG, Switzerland). Dose-response curves were designed with Graph Pad Prism Software and the half-maximal inhibitory concentration (IC50) values were calculated. Represented data are the mean±SEM of at least three independent experiments with six replicates per condition.
(Formazan colour is commonly taken as a measure of viable cells.)

Data set [2] concerns HT29 cells. Briefly: BrdU proliferation assay, HT29. It counts as cell-based, human. Particulars: 48 h. As to the method:
(§2) For BrdU assays, 1×10^4 of indicated cells were plated per well into a 96-well plate. After 24 h, cells were treated with the indicated inhibitors for 48 h. Three independent experiments were plated with six replicates per each condition. Cells were treated with […] BrdU for 2 h. BrdU incorporation into newly synthesized DNA was measured using a cell proliferation colorimetric immunoassay kit according to the manufacturer's instructions (Roche, Switzerland). Results are expressed as mean±S.D. Results are represented as percentage of positive cells (mean±S.D) of three independent experiments.

In a further data set the test system is LoVo cells. Briefly: BrdU proliferation assay, LoVo. The format is cell-based. Particulars: 48 h. On the procedure:
as §2

The test system of another data set is Hakai-MDCK cells. Briefly: BrdU proliferation assay, Hakai-MDCK. The format is cell-based. Particulars: 48 h. On the procedure:
as §2

Data set [3] deals with prostate cancer PC-3 cells. Nature of the data set: BrdU proliferation assay, PC-3. The format is cell-based, human. Particulars: 48 h. On the procedure: as §2
For a further data set, the system named is HT-29 cells. Nature of the data set: Soft agar-colony formation assay, HT-29. It counts as cell-based, human. Particulars: 28 days. As to the method:
Soft agar-colony formation assay was performed on 12-well plates in triplicates at a density of 5×10^3 MDCK and MDCK-Hakai cells/well, or 12×10^3 HT29 cells/well. Cells were seeded in medium with 0.5% low-melting agarose over a layer with 0.75% low-melting agarose (Lonza Rockland, Me., USA). Cells were treated with the indicated inhibitors and DMSO was used as vehicle. Treatment was refreshed every 3 days and, after 21 days for MDCK and MDCK-Hakai cells or 28 days for HT29 cells, number of colonies were quantified. Quantification of five randomly-selected fields of each condition was photographed with a Nikon Eclipse-TI microscope (objective 4×). Experiments were conducted with three triplicates and were repeated three times. Data are represented as mean±SD.

The subject of data set [4] is HT29 cells. Briefly: Migration assay, HT29. The format is cell-based, human. Conditions: HT-29; treated 48 h. On the procedure: For invasion assays, cells were treated with Hakin-1 or DMSO as vehicle for 48 h using 1% FBS during the last 24 hours. 3×10^5 MDCK, MDCK-Hakai or LoVo cells were seeded in a cell invasion chamber (Cell invasion assay kit, Chemicon International) containing medium with 2% FBS. After 72 hours for MDCK and MDCK-Hakai Invasive and 16 h for LoVo cells, invasive cells invaded that reach the lower chamber containing 30% FBS were fixed and stained with crystal violet (Sigma Aldrich, St Louis, Mo.) following the manufacturer's specifications. For migration assays, HT29 cells were cultured with Hakin-1 or DMSO as vehicle for 48 h, using medium without serum the last 24 h. In the cell migration chamber were seeded 3×10^5 HT29 cells (Cell migration kit, Millipore, Bedford, Mass.) containing medium without serum. After 16 h, migrated cells in the lower chamber containing serum with 30% FBS were stained with crystal violet and counted following the manufacturer's specifications. For both invasion and migration assays cells were counted in five fields photographed with an Olympus microscope using a 20× objective, experiments were performed in triplicates for each condition and the assays were repeated at least three times. Results are expressed as mean±SD.

A short description of data set [5]: Hepatocyte stability, mouse. It counts as in vitro ADME. Particulars: cryopreserved mouse hepatocytes in suspension, read-out: half-life (T½). On the procedure:
(§3) Test compound (final substrate concentration 3 μM; final DMSO concentration 0.25%) were pre-incubated at 37° C., prior to the addition of a suspension of cryopreserved hepatocytes (final cell density 0.5×10^6 viable cells/mL in Williams E media supplemented with 2 mM L glutamine and 25 mM HEPES) to initiate the reaction. The reactions were stopped with acetonitrile containing internal standard at the appropriate time points ([…]). The termination plates were centrifuged at 2500 rpm at 4° C. for 30 minute to precipitate the protein. Following the hepatocyte stability assays, the samples were utilized for metabolite profiling. Hepatocyte stability in mouse and human was performed by using the incubation of tested compound (3 μM) with cryopreserved hepatocytes in suspension. Samples were removed at 6 time points over the course of a 60 min experiment and remaining test compound at each time point was analysed by using LC-MS/MS. Then, data was analysed and an intrinsic clearance (CLint) with standard error and half-life (t½) reported.

In data set [6] the test system is non-cancerous HEK293T cells. Nature of the data set: MTT cell viability assay, HEK293T. It counts as cell-based, human. Conditions: concentrations tested in the previous assays. As to the method: as §1
The test system of data set [7] is Colon cancer HCT116 cells. Briefly: BrdU proliferation assay, HCT116. It counts as cell-based, human. Conditions: 48 h. On the procedure: as §2
The subject of data set [8] is mouse-cryopreserved hepatocytes. Nature of the data set: Hepatocyte stability, mouse. The format is in vitro ADME. Particulars: 3 μM. On the procedure: as §3

Usually half-life stands for the time needed for the level to fall by half in the phase considered.

Regarding `O=C(O)c1ccc(-n2nnnc2SCC(=O)c2ccc([N+](=O)[O-])cc2)cc1` [Hakin-1, 4-(5-[2-(4-nitrophenyl)-2-oxoethyl]thiol-1H-tetrazol-1-yl)benzoic acid], the “cytotoxicity (cell viability, MTT)” value in data set [1] was “important inhibitory response”. Also, the “cell proliferation (BrdU)” value in the data set with HT29 cells [2] is recorded as “reduced cell proliferation”; in the data set with LoVo cells, “reduced cell proliferation”; in the data set on Hakai-MDCK cells, “suppress proliferation”; in [3] it was “inhibited cell proliferation”. The “colony formation in soft agar” value in the data set with HT-29 cells is on record as “robust inhibition of colony formation”. Besides, in the data set on HT29 cells [4], the cell migration result is reported as “important reduction of cell migration”. Also, in data set [5], the half-life at 3 μM was found to be 5.92 min.

As to `O=C(O)c1ccc(-n2nnnc2SCC(O)c2ccc([N+](=O)[O-])cc2)cc1` (centres unmarked) [MKH1], in data set [6], the “cytotoxic effect (cell viability, MTT)” value is “no cytotoxic effect”. The “cell proliferation (BrdU)” value in data set [7] is given as “inhibit cell proliferation”. For the same compound, in [8], the “compound remaining after 60 min” value was 95%-100%.

The values are drawn from US20230181535A1, “UBIQUITIN-LIGASE INHIBITORS FOR THE TREATMENT OF CANCER” (FUNDACIÓN PROFESOR NOVOA SANTOS, priority 2020, published 2023).
